Square brackets hold non-standard residues; d marks the D form. Peptide text beside a SMILES is read from it.
Experiments:
[1] = tested on: BNX mice transplanted with skin from psoriatic human donors; test: Psoriasis transplant model (human psoriatic skin on BNX mice); assay type: in vivo; conditions: FIG. 25B; KdPT i.p. 10 μg/d, three weeks
Procedure: Immunodeficient mice (BNX mice) were transplanted with skin from psoriatic human donors. Animals with viable transplant were injected with PBMCs from the same donor, resulting in appearance of a psoriatic phenotype within the transplant. Animals were treated as follows:
Group 1: Betamethasone, topically, 2× daily, Group 2: Vehicle, i.p. 100 μL/d, Group 3: KdPT i.p. 1 μg/d, Group 4: KdPT i.p. 10 μg/d, all treatments were kept up for three weeks.
As shown in FIGS. 25A and 25B, immunodeficient mice (BNX mice) were transplanted with skin from psoriatic donors. Animals with viable transplant were injected with PBMCs from the same donor, resulting in appearance of a psoriatic phenotype within the transplant. Animals were treated as follows:
Group 1: Vehicle, i.p. 100 μL/d, Group 2: Betamethasone, topically, 2× daily, Group 3: KdPT i.p. 10 μg/d, all treatments were kept up for three weeks.

Balb/C mice = test: CHS sensitization and tolerance after i.v. injection of αMSH or peptides (DNFB); conditions: for inhibition of CHS response to DNFB exposure 7 days after sensitization (auricular swelling): i.v. 2 hours before sensitization, 5 μg αMSH or 1.5 μg peptide (KP: 50 μg) per mouse; for auricular swelling response after second sensitization and hapten exposure (tolerance to DNFB): injected i.v. before the first sensitization only
Procedure: 7 to 10 week old female Balb/C mice were obtained from Charles River (Sulzfeld, Germany) and kept in compliance with government regulations.
Before the injection, the particular compound was dissolved in PBS, 0.1% mouse serum, and stored on ice until injected i.v. into the tail vein of the mice.
The mice were sensitized by spreading 75 μl of 0.5% DNFB in acetone/olive oil (4:1) on the shaven abdomen of naive mice. CHS was induced by applying 10 μl of 0.3% DNFB to the ears of the mice on both sides of one ear. CHS was determined by the degree of auricular swelling of the hapten-exposed ear compared with the other, control-treated ear and was measured using spring-loaded dividers 24 hours after hapten exposure. Mice whose ears were exposed to hapten without previous sensitization served as negative controls.

[2] = tested on: bone marrow dendritic cells (BMDC); test: CHS and tolerance after injection of BMDC treated in vitro with hapten and αMSH or KP; assay type: in vivo, mice; conditions: for immune response at second challenge after resensitization (tolerance): recipients of hapten- and peptide-treated BMDC; for CHS reaction at first challenge in recipients of hapten- and peptide-treated BMDC: αMSH 2×10^−11 M or KP 2×10^−6M in vitro, cells i.v.
Procedure: Bone marrow dendritic cells (BMDC) were isolated from the femoral bones of mice and treated with IL-4 and GMCSF for 6 or 9 days. On day 6 or 9, the cells were treated with αMSH (2×10^−11 M) or the peptide KP (2×10^−6M) 3 hours and 2.5 hours before reinjection into naive mice with the same genetic background. 2 hours before reinjection, the cells were treated with hapten (1 mM DNBS, the water-soluble form of DNFB). Immediately before the reinjection, the cells were washed 2× with PBS. […] were injected i.v. into each animal. Control cells were treated either with DNBS alone or with αMSH alone or were left untreated. 5 days after injection, the animals were contacted with DNFB on the ear, and the ear thickness was measured the next day. 2 weeks later, the animals were resensitized with DNFB and again recontacted on the ear 5 days later. Finally, the auricular swelling was measured.

CD4+-T-cells = test: CD4+ T-cells after contact with peptide-treated DC in vitro; assay type: cell-based
[3] = biological target: T1, melanocortin receptor on THP-1 cells (MC-1) (Homo sapiens, UniProt Q01726); test: Competition with biotin-labeled αMSH for binding sites on THP-1 cells (FACS); conditions: unlabeled competitor 10^−6 M; biotin-labeled αMSH 10^−10 M
T1 construct: endogenous in cells; host or cells: THP-1 monocytic cell line (unstimulated, whole cells)
Procedure: All the steps were carried out at 0 to 4° C. The monocytic cell line THP-1 was washed once in PBS, once one acidic glycine buffer (50 mM glycine, 100 mM sodium chloride, pH 3) and three times with RPMI. The cells 2.5×10^6 per ml) were then resuspended in 100 μl of RPMI/1% BSA and transferred into 96-well microtiter plates. […] After a last washing step, the cells were resuspended in PBS. […] Dead cells were excluded by adding propidium iodide shortly before the FACS analysis.

[4] = tested on: sensitised recipient mice (Hapten: DNFB); test: Reinjection of CD4+ T-cells contacted with peptide-treated DC into DNFB-sensitised mice; assay type: in vivo; conditions: 1×10^6 cells
human PBMC = test: IL-10 secretion by human PBMC (ELISA); assay type: cell-based; conditions: for IL-10 production: 24 hours, αMSH 10^−11 M, KPV and KPT 10^−8 to 10^−9M; for production of IL-10: 48 hours
Procedure: Mononuclear cells (PBMC) were separated from human buffy coats by Ficoll Hypaque density gradient centrifugation. Cells (1×10^6 per ml), cultivated in RPMI 1640 with antibiotics and 10% FCS, were either not treated or stimulated with αMSH or the peptides KPV or KPT with or without IL-1β (10 U/ml). The supernatants of the PBMC cultures were collected after incubation for 24 or 48 hours and stored at −20° C. until used further. A commercially available ELISA was employed to detect IL-10.

[5] = tested on: PBMC from the blood of psoriasis patients; test: Regulatory T cells in PBMC from blood of psoriasis patients; assay type: cell-based, human
HDMEC = test: Lymphocyte adhesion assay (51Cr-labeled lymphocytes on endothelial cell layers); assay type: cell-based, human; conditions: molt4 T lymphocytes, JY B lymphocytes
Procedure: (§1) Human dermal microvascular endothelial cells (HDMEC) and the cell line HMEC-1 (human microvascular endothelial cell line 1) were treated either with TNFα or LPS in the presence or absence of one of the peptides. The cells were harvested for RNA isolation after 3 and after 6 hours after treatment or harvested either for adhesion molecule ETA or FACS analysis 3, 6, 16 or 24 hours after treatment. RNA underwent reverse transcription, and samples were subjected to a PCR for E selectin, ICAM-1, VCAM or for β-actin as housekeeping gene in order to carry out a semiquantitative determination. For the lymphocyte adhesion assay, the endothelial cells were seeded in dishes and incubated with ^51Cr-labeled lymphocytes. After a washing step, the amount of remaining lymphocytes bound to the EC layer was determined by measuring the radioactivity in the samples.

T cells / DC = test: T cells contacted in vitro with antigen-loaded, αMSH or derivative-treated DC; assay type: in vivo, mouse; conditions: FIG. 15
[6] = tested on: mice with Imiquimod-induced psoriasis-like skin inflammation; test: Imiquimod-induced psoriasis-like disease in mice; assay type: in vivo
[7] = tested on: E selectin, ICAM-1, VCAM in HDMEC and HMEC-1; test: Expression of adhesion molecules in LPS- or TNFα-treated endothelial cells (RT-PCR, EIA, FACS); assay type: cell-based, human; conditions: 10^−6 to 10^−12 M
Procedure: as §1

LPS-treated mice = test: LPS-induced localized vasculitis in mice (E selectin, petechial lesions); assay type: in vivo; conditions: αMSH 25 μg at the time of the preparatory LPS injection
Procedure: Mice were treated with LPS by s.c. injection on one ear. This preparatory injection induces a long-lasting rise in E selectin expression at the site of the LPS injection. 24 hours later, a second LPS dose was injected i.p. (challenge). This second LPS injection leads to rapid vessel necrolysis and to the formation of petechial lesions which are easily measurable because of their size and number. αMSH (25 μg) was administered at the time of the preparatory LPS injection.

T1 sequence (Q01726 whole entry): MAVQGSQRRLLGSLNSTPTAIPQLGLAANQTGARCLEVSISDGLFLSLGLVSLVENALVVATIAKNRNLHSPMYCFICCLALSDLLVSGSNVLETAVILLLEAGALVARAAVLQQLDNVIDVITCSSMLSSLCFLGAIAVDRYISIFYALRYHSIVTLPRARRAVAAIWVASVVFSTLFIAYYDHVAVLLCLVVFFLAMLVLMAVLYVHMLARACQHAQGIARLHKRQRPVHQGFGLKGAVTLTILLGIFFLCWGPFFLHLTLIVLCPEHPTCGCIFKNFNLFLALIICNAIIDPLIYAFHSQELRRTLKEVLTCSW

Row | Compound | weight loss as compared to treatment with betamethasone [1] | inhibition of CHS response to DNFB exposure 7 days after sensitization (auricular swelling) (Balb/C mice) | auricular swelling response after second sensitization and hapten exposure (tolerance to DNFB) (Balb/C mice) | immune response at second challenge after resensitization (tolerance) [2] | CHS reaction at first challenge in recipients of hapten- and peptide-treated BMDC [2] | effect of co-cultured CD4+ T-cells on proliferation of CD4+CD25− responder T-cells (CD4+-T-cells) | suppression of biotin-labeled αMSH binding [3] | effect of reinjected CD4+ T-cells on contact allergy [4] | IL-10 production (human PBMC) | production of IL-10 (human PBMC) | expression of Foxp3 and IL-10 in regulatory T cells [5] | expression of IFN-γ in regulatory T cells [5] | binding of T and B cells to LPS- or TNF-αMSH-treated EC layers (HDMEC) | induction of tolerance by T cells contacted in vitro with antigen-loaded, treated DC (T cells / DC) | number of regulatory CD4+CD25+Foxp3+ T cells ([6]; flow cytometry) | expression of regulatory T cells markers ([6]; qRT-PCR) | expression of Th17 markers ([6]; quantitative RT-PCR) | inhibition of LPS- or TNFα-induced expression of adhesion molecules (mRNA) [7] | number and size of petechial lesions after challenge injection of LPS (LPS-treated mice)
1 | C[C@@H](O)[C@H](NC(=O)[C@H]1CCCN1C(=O)[C@@H](N)CCCCN)C(=O)O [KdPT, (L)Lys-(D)Pro-(L)Thr] (H-Lys-[dP]-Thr-OH) | does not result in weight loss |  |  |  |  |  |  |  |  |  |  |  |  |  |  |  |  |  | 
2 | Lys-Pro [KP] |  | inhibits | inhibited the auricular swelling response very greatly | can induce tolerance | suppressed |  |  |  |  |  |  |  |  |  |  |  |  |  | 
3 | Lys-Pro-Val [KPV] |  | inhibits | weak effect |  |  | suppressive effect on the proliferation | significant inhibition | suppressive effect on contact allergy | evidently induced IL-10 production | significantly increased |  |  |  |  |  |  |  |  | 
4 | α-melanocyte-stimulating hormone [αMSH] |  | inhibits | inhibited the auricular swelling response very greatly | no immune response | suppressed | suppressive effect on the proliferation |  | suppressive effect on contact allergy | evidently induced IL-10 production | significantly increased | upregulated | downregulated substantially | significantly reduces | induction of tolerance | increased numbers | increased expression | Reduced Expression | inhibited | significantly reduces

— patent US10046020B2, “Inflammation inhibiting compounds” (priority 2001, dated 2018)
